{"source": "patent US10653651B2", "about": "“Kit for treating cancer with low molecular weight components of aurin tricarboxylic acid complex” (Aurin Biotech Inc., priority 2014, dated 2020)", "key": {"[1]": {"system": "U251 malignant glioblastoma human cell line", "assay": "U251 cell growth in zymosan-activated human serum (MTT cell viability)", "type": "cell-based", "details": "15% human serum, 1 μg/mL zymosan, 72 h, n=4, read-out: IC50, inhibition of U251 cell growth induced by zymosan-activated human serum complement", "method": "To obtain normal serum, blood samples from healthy individuals were treated at 37° C. for 3 h to promote clotting. Samples were then centrifuged at 3,000 g for 10 min and the clear serum was harvested.\nThe ATAC used comprised approximately 78% ATA, 15% AQA, and 7% AHA. In addition, ATA, AQA and AHA that had been separated by size exclusion chromatography were also tested individually, their purity having been verified by mass spectrometry.\nU251 cells were grown in DMEM medium containing 10% fetal bovine serum (FBS), 100 IU/mL penicillin, and 100 μg/mL streptomycin (Invitrogen™, Carlsbad, Ca.) under humidified 5% CO2 and 95% air until confluence was reached. This usually required 3 days of incubation. Aliquots of these cells (˜2×10^5 cells) were added to 24-well plates.\nExperiment 1 was designed to determine the effect of ATA, AHA, AQA and ATAC on U251 cell growth in the presence of complement activated human serum. In Experiment 1(a), U251 cells were treated with various concentrations of human serum (1, 5, 7.5, 10, 12.5, 15%) in DMEM and incubated with 1 μg/mL zymosan at 37° C. for 72 h. Control U251 cells (CON) were incubated in fresh DMEM only. As a further control U251 cells were treated with 10% human serum heated at 56° C. for 30 min to heat inactivate complement (HIS) before incubation with 1 μg/ml zymosan. In Experiment 1(b), U251 cells were treated with various concentrations of ATAC, ATA, AQA and AHA (0.1, 1, 5, 10, 30, 50 μM) in DMEM with 15% human serum and incubated with 1 μg/mL zymosan at 37 ° C. for 72 h. In both Experiments 1(a) and 1(b), following incubation, cell viability was evaluated by MTT (3-[4,5-dimethylthiazol-2-yl]-2,5 diphenyl tetrazolium bromide) assays by adding MTT to the cell cultures to reach a final concentration of 1 mg/mL. […] Plates were subsequently incubated overnight at 37° C. and optical densities at 570 nm were measured by transferring 100 μL aliquots to 96-well plates and using a plate reader with a corresponding filter."}, "[2]": {"system": "A549 cells", "assay": "Lactic dehydrogenase release from A549 cells", "type": "cell-based, human", "details": "n=4, read-out: IC50, lactate dehydrogenase release from A549 cells", "method": "(§1) Experiment 4 was designed to confirm apoptotic cell death of U251 cells induced by ATA, AQA, AHA, and ATAC by measuring release of lactic dehydrogenase into the cell medium. For serum lactate dehydrogenase determination, reaction supernatants ([…]) were pipetted into the wells of 96-well plates, followed by the addition of […] lactate solution (36 mg/mL in PBS) and […] INT (iodonitrotetrazolium chloride, 2-(4-iodophenyl)-3-(4-nitrophenyl)-5-phenyl-2H-tetrazolium chloride) solution (2 mg/mL in PBS). The enzymatic reaction was started by addition of […] of NAD^+/diaphorase solution (3 mg/mL NAD^+; 2.3 mg solid/mL diaphorase). After 1 h, optical densities were measured with a microplate reader using a 490 nm filter. The amount of LDH released was expressed as a percentage of the value obtained in comparative cells where cells were 100% lysed by 1% Triton X-100.\nExperiment 8 was designed to confirm apoptotic cell death of BxPC-3 cells induced by ATA, AQA, AHA, and ATAC by the release of lactic dehydrogenase into the cell medium.\nExperiment 12 was designed to confirm apoptotic cell death of A549 cells induced by ATA, AQA, AHA, and ATAC by the release of lactic dehydrogenase into the cell medium. The protocol was identical to that used in Experiment 8 except A549 cells were used."}, "[3]": {"system": "BT 474 cells", "assay": "Lactic dehydrogenase release from BT 474 cells", "type": "cell-based, human", "details": "n=4, read-out: IC50, lactate dehydrogenase release from BT 474 cells", "method": "as §1\n(§2) Experiment 14 was designed to determine if apoptotic cell death of BT 474 cells was induced by ATA, AQA, AHA, and ATAC as determined by the release of lactic dehydrogenase into the cell medium. The protocol was identical to that used in Experiment 5(d) except that BT 474 cells were used."}, "[4]": {"system": "DOHH2 human B-cell carcinoma cell line", "assay": "DOHH2 cell growth in zymosan-activated human serum (MTT cell viability)", "type": "cell-based", "details": "15% human serum, n=4, read-out: IC50, inhibition of DOHH2 cell growth induced by zymosan-activated human serum complement", "method": "(§3) Experiment 1 was designed to determine the effect of ATA, AHA, AQA and ATAC on U251 cell growth in the presence of complement activated human serum. In Experiment 1(a), U251 cells were treated with various concentrations of human serum (1, 5, 7.5, 10, 12.5, 15%) in DMEM and incubated with 1 μg/mL zymosan at 37° C. for 72 h. Control U251 cells (CON) were incubated in fresh DMEM only. As a further control U251 cells were treated with 10% human serum heated at 56° C. for 30 min to heat inactivate complement (HIS) before incubation with 1 μg/ml zymosan. In Experiment 1(b), U251 cells were treated with various concentrations of ATAC, ATA, AQA and AHA (0.1, 1, 5, 10, 30, 50 μM) in DMEM with 15% human serum and incubated with 1 μg/mL zymosan at 37 ° C. for 72 h. In both Experiments 1(a) and 1(b), following incubation, cell viability was evaluated by MTT (3-[4,5-dimethylthiazol-2-yl]-2,5 diphenyl tetrazolium bromide) assays by adding MTT to the cell cultures to reach a final concentration of 1 mg/mL. Following a 1 h incubation at 37° C., the dark crystals formed were dissolved by adding a SDS/DMF extraction buffer (300 μL, 20% sodium dodecyl sulfate, 50% N,N-dimethylformamide, pH 4.7). Plates were subsequently incubated overnight at 37° C. and optical densities at 570 nm were measured by transferring 100 μL aliquots to 96-well plates and using a plate reader with a corresponding filter.\nExperiment 15 was designed to determine the effect of ATA, AQA, 15 AHA and ATAC on DOHH2 human B-cell carcinoma cell growth. The protocol was identical to that used in Experiment 9(b) except DOHH2 human B-cell carcinoma cells were used."}, "[5]": {"system": "human bone osteosarcoma MNNG cells", "assay": "MNNG cell growth in zymosan-activated human serum (MTT cell viability)", "type": "cell-based", "details": "15% human serum, n=4, read-out: IC50, inhibition of MNNG cell growth induced by zymosan-activated human serum complement", "method": "as §3\nExperiment 21 was designed to determine the effect of ATA, AQA, AHA and ATAC on growth of the human bone osteosarcoma MNNG cell line. The protocol was identical to that used in Experiment 19 (b) except that human bone osteosarcoma MNNG cells were utilized."}, "[6]": {"system": "human bone osteosarcoma MNNG cells", "assay": "Lactic dehydrogenase release from MNNG cells", "type": "cell-based", "details": "n=4, read-out: IC50, lactate dehydrogenase release from MNNG cells", "method": "as §1\nas §2, with “22” for “14”, “apoptotic” for “apoptotic cell”, “human bone osteosarcoma MNNG” for “BT 474”, “19(d)” for “5(d)”"}, "[7]": {"system": "human colorectal cancer cell line SW 480", "assay": "SW 480 cell growth in zymosan-activated human serum (MTT cell viability)", "type": "cell-based", "details": "15% human serum, n=4, read-out: IC50, inhibition of SW 480 cell growth induced by zymosan-activated human serum complement", "method": "as §3\nExperiment 23 was designed to determine the effect of ATA, AQA, 15 AHA and ATAC on growth of the human colorectal cancer cell line SW 480. The protocol was identical to that used in Experiment 15(b) except that human colorectal cancer SW480 cells were utilized. Experiment 24 was designed to determine if apoptotic death of human carcinoma SW 480 cells was induced by ATA, AQA, AHA, and ATAC as determined by the release of lactic dehydrogenase into the cell medium. The protocol was identical to that used in Experiment 15(d) except that human carcinoma SW480 cells were used and the growth medium was DMEM."}}, "note": "Read-outs that look alike come from different tables or passages of the source."}
{"compound": "O=C(O)C1=CC(=C(c2ccc(O)c(C(=O)O)c2)c2ccc(O)c(C(=O)O)c2)C=CC1=O", "note": "[ATA, aurin tricarboxylic acid]", "values": [{"measurement": "IC50", "setting": "[1]; U-251, U251 cells", "value": 3.5, "unit": "µM"}, {"measurement": "IC50", "setting": "[2]; Homo sapiens", "value": 7.5, "unit": "µM"}, {"measurement": "IC50", "setting": "[3]; Homo sapiens", "value": 4.8, "unit": "µM"}, {"measurement": "IC50", "setting": "[4]; DOHH-2, DOHH2 cells", "value": 5.1, "unit": "µM"}, {"measurement": "IC50", "setting": "[5]", "value": 7.2, "unit": "µM"}, {"measurement": "IC50", "setting": "[6]; Homo sapiens", "value": 6.5, "unit": "µM"}, {"measurement": "IC50", "setting": "[7]; SW480, SW 480 cells", "value": 7, "unit": "µM"}]}
{"compound": "aurin hexacarboxylic acid [AHA]", "values": [{"measurement": "IC50", "setting": "[1]; U251 cells", "value": 3.8, "unit": "µM"}, {"measurement": "IC50", "setting": "[2]", "value": 7.6, "unit": "µM"}, {"measurement": "IC50", "setting": "[3]", "value": 4.9, "unit": "µM"}, {"measurement": "IC50", "setting": "[4]; DOHH2 cells", "value": 4.9, "unit": "µM"}, {"measurement": "IC50", "setting": "[5]", "value": 7.5, "unit": "µM"}, {"measurement": "IC50", "setting": "[6]", "value": 6.6, "unit": "µM"}, {"measurement": "IC50", "setting": "[7]; SW 480 cells", "value": 6.8, "unit": "µM"}]}
{"compound": "aurin quadracarboxylic acid [AQA]", "values": [{"measurement": "IC50", "setting": "[1]; U251 cells", "value": 3.7, "unit": "µM"}, {"measurement": "IC50", "setting": "[2]", "value": 7.4, "unit": "µM"}, {"measurement": "IC50", "setting": "[3]", "value": 4.7, "unit": "µM"}, {"measurement": "IC50", "setting": "[4]; DOHH2 cells", "value": 5, "unit": "µM"}, {"measurement": "IC50", "setting": "[5]", "value": 7.4, "unit": "µM"}, {"measurement": "IC50", "setting": "[6]", "value": 6.4, "unit": "µM"}, {"measurement": "IC50", "setting": "[7]; SW 480 cells", "value": 7, "unit": "µM"}]}
